In patent publication US20180237449A1, “FUMAGILLOL SPIROCYCLIC COMPOUNDS AND FUSED BICYCLIC COMPOUNDS AND METHODS OF MAKING AND USING SAME” (Zafgen, Inc., priority 2015, published 2018):
Where a name gives a salt, the structure may show the parent alone.

Legend:
[1] = test system: Diet Induced Obese (DIO) C57BL/6 mice; experiment: 10 day DIO mouse model, weight loss vs. vehicle; format: in vivo; details: 0.3 mpk sc once a day for 10 days
Source text: The objective of this study design was to investigate the efficacy of disclosed compounds in a 10 day DIO mouse model. Effects on body weight, food intake, hematology and blood chemistry were the primary readouts of this study design. Male, Diet Induced Obese (DIO) C57BL/6 mice, 19-21 weeks of age (13-15 weeks on high fat diet) were ordered from a certified vendor and upon receipt were housed on irradiated corncob bedding in micro-isolator cages on a 12-hour light-dark cycle (0700-1900) at 68-74° F. and 30-70% humidity. Mice were fed Research Diets D12492 (60% Kcal fat, 20% Kcal carbohydrate and 20% protein) and provided water ad libitum. DIO mice were received and housed in the facility for approximately two weeks prior to the start of test article administration. On Day −4 or −3, mice were randomized into study groups based on body weight and body weights were continued to be recorded daily for the duration of the study. Daily food intake was assessed starting on Study Day −2 by weighing of the food with hopper together to avoid loss of food in transfer.
Compounds were formulated into a 100% DMSO stock (at 9 mg/mL) prior to the start, and further diluted into the target working concentration using the vehicle of 10% DMSO in water. Prior to test article administration, starting on Day −3 a dosing acclimation occurred with all animals receiving a subcutaneous injection of vehicle (10% DMSO) only for 3 days. Starting on Day 1, test compounds or vehicle were administered based on individual body weight, subcutaneously, once a day for 10 days. All mice were sacrificed on Day 11, 24 hours following the final dosing on Day 10. After sacrifice, whole blood was collected and analyzed for hematology and blood chemistry parameters.
Compounds were tested for weight loss vs. vehicle at 0.3 and 1.0 mpk sc (mg per kg animal weight delivered subcutaneously), and the results are shown in Table 2 below.

[2] = test system: pregnant Sprague Dawley rats; experiment: Rat embryofetal development study; format: in vivo; details: 6 mpk sc once every three days, Gestation Days 6-18
Procedure: The objective of this study design was to evaluate the potential effects of disclosed compounds on embryo/fetal development when given subcutaneously to pregnant rats once every three days during the critical period of organogenesis (Gestation Days 6-18). Female, Sprague Dawley rats, approximately 10 weeks of age, time bred, were ordered from a certified vendor and housed individually housed in stainless steel cages suspended over flush pans, on a 12-hour light-dark cycle (0700-1900) at 20-26° C. and 30-70% humidity. Rats were fed a standard rodent chow and provided water ad libitum. Rats were received and housed in the facility for a period of approximately 1 to 2 days.
Compounds were formulated using 100% DMSO mixed in Sterile Water for Injection, resulting in 2% DMSO solution in water. If necessary, due to limited solubility of a test article, a higher percentage of DMSO solution in water was used. Groups of 8 mated and presumed pregnant female rats were given subcutaneous doses of vehicle or test article, once every three days, beginning on Gestation Day 6 and ending on Gestation Day 18 (Days 6, 9, 12, 15, and 18), maintained two more days, and then euthanized and necropsied on Gestation Day 20. Body weights was recorded for all animals on Gestation Days 5 (purpose of randomization), 6, 9, 12, 15, 18, and 20 (scheduled euthanasia). Food consumption by weight was recorded on Gestation Days 6, 9, 12, 15, 18, and 20 (scheduled termination).
At necropsy, the dams were examined visually for external abnormalities including palpable masses. The abdominal, thoracic, and cranial cavities and their contents were examined for abnormalities and findings will be recorded. The reproductive tract were examined to record the number of ovarian corpora lutea, the number and location of uterine implantation sites noting the position of the cervix, and the number of early resorptions, late resorptions, live fetuses, and dead fetuses. For dead fetuses and late resorptions, crown-to-rump length and weight were recorded, if possible, and the fetus was discarded. For viable fetuses, weight, sex, and grossly visible external abnormalities were recorded.

[3] = test system: human fibrosarcoma cell line HT-1080; experiment: HT-1080 cell assay (CellTiter-Glo, 72 hours); format: cell-based; details: 72 hours incubation
Procedure: The human fibrosarcoma cell line HT-1080 were grown to almost complete confluence in T75 tissue culture flasks in preparation for the experiment. The cells were trypsinised and re-suspended in complete medium using DMEM plus 9% FBS including penicillin/streptomycin supplements. 500 cells in a total volume of 25 μl were seeded into black walled 384 well plates and returned to a CO2 incubator over-night. Compounds and standards were prepared at 333.3× actual test concentration in neat DMSO. 10 point dose response curves of test compounds were generated by 1:3 serial dilutions, 2 μl of DMSO stock was transferred to 109 μl complete medium. This was further diluted 1:6 in complete medium, with 5 μl of the resulting solution added to the incubated 384 well plate. […] For experimental blanks at the start of the experiment, CellTiter-Glo was added to a satellite plate of cells (identical to the experimental plate), when adding compounds on Day 1. The average of these wells is used as the blanks in the calculation template. Following 72 hours incubation with compounds and standard the plate was removed from the incubator and allowed to equilibrate at room temperature for at least 30 minutes. CellTiter-Glo was thawed and subsequently 30 μl added to columns 2-23. The plate was covered with a clear Perkin Elmer Topseal and placed on a plate shaker for 10-20 mins to aid homogenous mixing. Luminescence per well was determined using an EnVision 2104 Multilabel Reader (PerkinElmer) or other suitable reader. The compound blank value recorded on Day 1 is subtracted from all other data. Data is expressed as % inhibition of mean DMSO control response and the EC50 is calculated as 50% maximum response. The EC50 values are determined from a sigmoidal 4 parameter curve fit using XLfit in conjunction with Activity Base (IDBS; Guildford, Surrey, UK). The bottom of the curve is fixed to 0% inhibition.

[4] = test system: DIO Sprague Dawley rats; experiment: 11 day rat DIO model, weight loss vs. vehicle; format: in vivo; details: 0.3 mpk sc once a day for 11 days
Source text: The objective of this study design is to investigate the efficacy of disclosed compounds in an 11 day rat DIO model used to screen compounds for pharmacologic efficacy on endpoints related to obesity and metabolism. Effects on body weight, food intake, hematology and blood chemistries were the primary readouts of this study design. Male Sprague Dawley rats, approximately 8 weeks of age, were ordered from a certified vendor and housed on irradiated corncob bedding in micro-isolator cages, on a 12-hour light-dark cycle (0700-1900) at 68-74° F. and 30-70% humidity. Rats were fed Research Diets D12451 (45% High Fat) and provided water ad libitum. Rats were received and housed in the facility for at least two or three weeks prior to start of test article administration. On Day −4 or −3, rats were randomized into study groups based on body weight and body weights were continued to be recorded daily for the duration of the study. Daily food intake was assessed starting on Study Day −2 by weighing the hopper including the food to avoid loss of food in transfer.
Compounds were formulated into a 100% DMSO stock (at 9 mg/mL) prior to the start, and further diluted into the target working concentration using the vehicle of 10% DMSO in water. […] After sacrifice, whole blood was collected and analyzed for hematology and blood chemistry parameters. […]

SMILES	weight loss vs. vehicle, Mouse @ 0.3 mpk sc (%) [1] [%]	Rat Embryofetal @6 mpk [2]	EC50 [3] [pM]	weight loss vs. vehicle, Rat @ 0.3 mpk sc (%) [4] [%]
CO[C@@H]1[C@H](OC(=O)N2CC3(CNC(=O)C3)C2)CC[C@]2(CO2)[C@H]1[C@@]1(C)O[C@@H]1CC=C(C)C [Example 25, (3R,4S,5S,6R)-5-methoxy-4-((2R,3R)-2-methyl-3-(3-methylbut-2-enyl)oxiran-2-yl)-1-oxaspiro[2.5]octan-6-yl 7-oxo-2,6-diazaspiro[3.4]octane-2-carboxylate]	2			
CO[C@@H]1[C@H](OC(=O)/C=C/c2ccc(OCCN(C)C)cc2)CC[C@]2(CO2)[C@H]1[C@@]1(C)O[C@@H]1CC=C(C)C [compound A, [(3R,6R,7S,8S)-7-methoxy-8-[(2R,3R)-2-methyl-3-(3-methylbut-2-enyl)oxiran-2-yl]-2-oxaspiro[2.5]octan-6-yl] (E)-3-[4-[2-(dimethylamino)ethoxy]phenyl]prop-2-enoate, reference compound]		Positive		
CO[C@@H]1[C@H](OC(=O)N2C[C@@H]3[C@H](C2)[C@H]3C(=O)NCCN2CCOCC2)CC[C@]2(CO2)[C@H]1[C@@]1(C)O[C@@H]1CC=C(C)C [Example 37, (1R,5S,6R)-(3R,4S,5S,6R)-5-methoxy-4-((2R,3R)-2-methyl-3-(3-methylbut-2-en-1-yl)oxiran-2-yl)-1-oxaspiro[2.5]octan-6-yl 6-((2-morpholinoethyl)carbamoyl)-3-azabicyclo[3.1.0]hexane-3-carboxylate]	4.3			
CO[C@@H]1[C@H](OC(=O)N2CC3(COC3)C2)CC[C@]2(CO2)[C@H]1[C@@]1(C)O[C@@H]1CC=C(C)C [Example 2, (3R,4S,5S,6R)-5-methoxy-4-((2R,3R)-2-methyl-3-(3-methylbut-2-enyl)oxiran-2-yl)-1-oxaspiro[2.5]octan-6-yl 2-oxa-6-azaspiro[3.3]heptane-6-carboxylate]		Positive	< 500	
CO[C@@H]1[C@H](OC(=O)N2CC3(C2)CS(=O)(=O)C3)CC[C@]2(CO2)[C@H]1[C@@]1(C)O[C@@H]1CC=C(C)C [Example 23, (3R,4S,5S,6R)-5-methoxy-4-((2R,3R)-2-methyl-3-(3-methylbut-2-enyl)oxiran-2-yl)-1-oxaspiro[2.5]octan-6-yl 2-thia-6-azaspiro[3.3]heptane 2,2-dioxide-6-carboxylate]	2			
CO[C@@H]1[C@H](OC(=O)N2CCC3(CC2)COC3)CC[C@]2(CO2)[C@H]1[C@@]1(C)O[C@@H]1CC=C(C)C [Example 5, (3R,4S,5S,6R)-5-methoxy-4-((2R,3R)-2-methyl-3-(3-methylbut-2-enyl)oxiran-2-yl)-1-oxaspiro[2.5]octan-6-yl 2-oxa-7-azaspiro[3.5]nonane-7-carboxylate]	16.7			6.6
CO[C@@H]1[C@H](OC(=O)N2CC3C(C2)C3(F)F)CC[C@]2(CO2)[C@H]1[C@@]1(C)O[C@@H]1CC=C(C)C (stereo partly drawn) [Example 22, (3R,4S,5S,6R)-5-methoxy-4-((2R,3R)-2-methyl-3-(3-methylbut-2-enyl)oxiran-2-yl)-1-oxaspiro[2.5]octan-6-yl 6,6-difluoro-3-azabicyclo[3.1.0]hexane-3-carboxylate]		Negative	< 500	
CO[C@@H]1[C@H](OC(=O)N2CC3(CCN(CC(F)F)CC3)C2)CC[C@]2(CO2)[C@H]1[C@@]1(C)O[C@@H]1CC=C(C)C [Example 9, (3R,4S,5S,6R)-5-methoxy-4-((2R,3R)-2-methyl-3-(3-methylbut-2-enyl)oxiran-2-yl)-1-oxaspiro[2.5]octan-6-yl 7-(2,2-difluoroethyl)-2,7-diazaspiro[3.5]nonane-2-carboxylate formate]		Positive	< 500	
CO[C@@H]1[C@H](OC(=O)N2CCC3(CCN(C)CC3)CC2)CC[C@]2(CO2)[C@H]1[C@@]1(C)O[C@@H]1CC=C(C)C [Example 28, (3R,4S,5S,6R)-5-methoxy-4-((2R,3R)-2-methyl-3-(3-methylbut-2-enyl)oxiran-2-yl)-1-oxaspiro[2.5]octan-6-yl 9-methyl-3,9-diazaspiro[5.5]undecane-3-carboxylate]	8			
CO[C@@H]1[C@H](OC(=O)N2CCC3(CCOCC3)C2)CC[C@]2(CO2)[C@H]1[C@@]1(C)O[C@@H]1CC=C(C)C [Example 27, (3R,4S,5S,6R)-5-methoxy-4-((2R,3R)-2-methyl-3-(3-methylbut-2-enyl)oxiran-2-yl)-1-oxaspiro[2.5]octan-6-yl 8-oxa-2-azaspiro[4.5]decane-2-carboxylate]		Positive	< 500	
CO[C@@H]1[C@H](OC(=O)NC2CC3(CCN(C)C3)C2)CC[C@]2(CO2)[C@H]1[C@@]1(C)O[C@@H]1CC=C(C)C (stereo partly drawn) [Example 11, (3R,4S,5S,6R)-5-methoxy-4-((2R,3R)-2-methyl-3-(3-methylbut-2-enyl)oxiran-2-yl)-1-oxaspiro[2.5]octan-6-yl 6-methyl-6-azaspiro[3.4]octan-2-ylcarbamate formate]	6			
